Consider 10 molecules from patent US10329304B2, “Compounds and methods for inhibition of hedgehog signaling and phosphodiesterase” (Vanderbilt University, priority 2014, dated 2019).

In assay [1] the test system is B16F11. Kind of assay: Cell viability assay (CellTiter-Blue, 72 hr). Type of assay: cell-based, Mouse. The procedure:
(§1) Cancer cell lines were seeded in 96 well tissue culture plate at a low density (10,000 cells per well) and treated with varying concentrations of Eggmanone. After 72 hr incubation, CellTiter-Blue Cell Viability Assay (Promega, Madison, Wis.) was then performed according to manufacturer's protocol. Absorbance was then measured in a Modulus Microplate reader (Promega, Madison, Wis.) at 590 nm and compared to cells treated with DMSO.
(§2) Cancer cell lines were seeded in 96 well tissue culture plate at a low density and treated with varying concentrations of compounds identified in Table 7. After 72 hr incubation, CellTiter-Blue Cell Viability Assay (Promega, Madison, Wis.) was then performed according to manufacturer's protocol. Absorbance was then measured in a Modulus Microplate reader (Promega, Madison, Wis.) at 590 nm and compared to cells treated with DMSO.

For assay [2], the system named is Gli1 mRNA. Kind of assay: Hh % Inh.: SAG-induced Gli1 expression in C3H10T½ cells (qPCR). Format: cell-based. Particulars: Mus musculus, C3H 10T1/2, SAG-induced (100 nM), 24 hours; for inhibition at 1 µM: 1 pM [sic], read-out: C3H10T1/2 qPCR, Gh1 mRNA % Inh., 1 pM; for inhibition at 10 µM: 10 pM [sic], read-out: C3H10T1/2 qPCR, Gh1 mRNA % Inh., 10 pM; for EC50: read-out: C3H10T1/2 qPCR, Gh1 mRNA EC50. The procedure: Compounds are dosed from 10 mM DMSO stock solutions, and mRNA is isolated after 24 hours of compound treatment. mRNA is reverse transcribed to produce cDNA which is quantified by quantitative polymerase chain reaction (qPCR) in triplicate and levels are normalized to GAPDH levels. Data is presented as percent inhibition compared to positive control (SAG).
In general terms: Quantitative PCR measures a nucleic acid by following its amplification.

Assay [3] has as its system Hedgehog signaling (TM3-Gli-Luc). Kind of assay: TM3-Gli-Luc luciferase reporter assay stimulated with 20 nM SAG. Type of assay: cell-based. In a few lines: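 Luciferase read-out divided by CellTiter-Glo viability, minus DMSO/no-SAG baseline, expressed relative to 20 nM SAG alone. Cells exposed to compound with SAG for 48 h at 37 °C in 2.5% FBS DMEM/F12 on gelatin. EC50 ±SEM from at least two separate-day runs.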

For assay [4], the system named is RKO. Nature of the assay: Cell viability assay (CellTiter-Blue, 72 hr). Particulars: for EC50: RKO, human cancer cells, read-out: CELL KILLING EC50 (μM) Colon RKO. Type of assay: cell-based, Human. As to the method: as §1, §2
(Alamar Blue is a resazurin reagent that responds to reducing activity.)

For assay [5], the system named is HCT116. Kind of assay: Cell viability assay (CellTiter-Blue, 72 hr). Format: cell-based, Human. The procedure:
as §1, §2

Assay [6] relates to MDA-MB- 231. Kind of assay: Cell viability assay (CellTiter-Blue, 72 hr). Type of assay: cell-based, Human. The procedure: as §1, §2
The subject of assay [7] is DaoY. Nature of the assay: Cell viability assay (CellTiter-Blue, 72 hr). Format: cell-based, Human. The procedure:
as §1, §2

Assay [8] deals with RWGT2. Nature of the assay: Cell viability assay (CellTiter-Blue, 72 hr). Type of assay: cell-based, Human. The procedure:
as §1, §2

The test system of assay [9] is PC3. Nature of the assay: Cell viability assay (CellTiter-Blue, 72 hr). Type of assay: cell-based. Particulars: for EC50: PC-3, human cancer cells, read-out: CELL KILLING EC50 (μM) Prostate PCx3. As to the method: as §1
The mark [10] stands for this setting: Mus musculus, B16-F10, Table 10, read-out: CELL KILLING EC50 (μM) Melanoma B16F10.
The mark [11] stands for this setting: Table 9A, read-out: TM3 G8 Luciferase EC 50.
Where [12] appears, read: HCT-116, human cancer cells, read-out: CELL KILLING EC50 (μM) Colon HTC116.
The mark [13] stands for this setting: MDA-MB-231, human cancer cells, read-out: CELL KILLING EC50 (μM) Breast MDA-231.
Setting [14] is: Daoy, human cancer cells, read-out: CELL KILLING EC50 (μM) Medulloblastoma DaoY.
The mark [15] stands for this setting: human cancer cells, read-out: CELL KILLING EC50 (μM) Lung Squam, NSCLC RWGT2.
Where [16] appears, read: 20 nM SAG, mean ± standard error of the mean, read-out: TM3-Gli-Luc EC50.
Setting [17] is: TM3-Gli-Luc reporter line stimulated with 20 nM SAG, mean ± SEM, Table 14, read-out: TM3-Gli-Luc EC50.

“Also recorded” adds a separate entry of the source. Where two headings read alike, the source gives them in different places.

Turning to `C=C(C)Cn1c(SCC(=O)c2cccs2)nc2sc3c(c2c1=O)CCCC3` [EGM, Eggmanone], the EC50 amounted to 2.22 µM in [1] (setting [10]); 1.41 µM in assay [2]; 1.35 µM in [3] (setting [11]); 54.3 µM in [4]; 11.4 µM in assay [5] (setting [12]); 2.05 µM in assay [6] (setting [13]). Also, the EC50 in assay [7] (setting [14]) came out at 31.5 µM; in assay [8] (setting [15]) it was 6.87 µM; in [9], 77.2 µM. Further, in [2], the inhibition at 1 µM is 53.3%. For the same molecule, in assay [2], the inhibition at 10 µM is 92.7%.
On to `C=C(C)Cn1c(SCC(=O)c2cccs2)nc2sc3c(c2c1=O)CCCC3` [Eggmanone, 3-(2-methylallyl)-2-((2-oxo-2-(thiophen-2-yl)ethyl)thio)-5,6,7,8-tetrahydrobenzo[4,5]thieno[2,3-d]pyrimidine-4(3H)-one], for which the EC50 in assay [1] (72 h, read-out: EC50 (50% reduction of viable cell count at 72 hours), B16F11, Mouse Melanoma) was found to be 2.05 µM; in assay [6] (72 h, read-out: EC50 (50% reduction of viable cell count at 72 hours), MDA-MB- 231, Human Breast Adenocarcinoma) it was 2.05 µM; in assay [8] (72 h, read-out: EC50 (50% reduction of viable cell count at 72 hours), RWGT2, Human Lung Carcinoma) it was 6.87 µM. Further, the “Effect on RKO colon cancer cell line” value in assay [4] is on record as “significantly inhibited”. Also, in [5], the “Effect on HCT116 colon cancer cell line” value is listed as “significantly inhibited”. The “Viability of Daoy medulloblastoma cells” value was “potently and preferentially reduced the viability; also recorded: significantly inhibited” in [7]; “potently and preferentially reduced the viability” in assay [7] (listed as eggmanone). The “Effect on PC3 prostate cancer cell line” value in assay [9] was “is affected”.
With `CCCn1c(SCC(=O)c2cccs2)nc2sc3c(c2c1=O)CCCC3` [Formula 9e], the EC50 in assay [3] (setting [16]) and in [3] (setting [17]) was 1.3 ± 0.18 µM in each case.
As to `C=C(C)Cn1c(SCC(=O)c2ccccc2)nc2sc3c(c2c1=O)CCCC3` [Formula 9g], the “Hh inhibitory activity / potency in words” value in assay [3] (20 nM SAG) is reported as “modest potency”. The EC50 in assay [3] (setting [16]) and in assay [3] (setting [17]) was 5.7 ± 2.1 µM each time.
With `O=C(CSc1nc2sc3c(c2c(=O)n1C1CC1)CCCC3)c1cccs1` [JEH-3-039-2], in [2], the inhibition at 1 µM amounted to 49.3%, the inhibition at 10 µM was found to be 89.1% and the EC50 was 0.593 µM. For the same molecule, the EC50 in assay [3] (setting [11]) is 0.476 µM.
In the case of `C=CCn1c(SCC(=O)c2cccs2)nc2sc3c(c2c1=O)CCCC3` [JEH-3-039-3], the EC50 in assay [1] (setting [10]) came out at 3.69 µM; in [3] (setting [11]) it was 3.02 µM; in assay [4] it was 306 µM; in [5] (setting [12]), 54.5 µM; in [6] (setting [13]), 1.74 µM; in assay [7] (setting [14]) it was 34 µM. Moreover, the EC50 in [8] (setting [15]) came out at 5.07 µM; in [9], 50.1 µM. For the same molecule, the inhibition at 1 µM in assay [2] is 64.9%. The inhibition at 10 µM in [2] stood at 66.5%.
On to `C=C(C)Cn1c(SCC(=O)c2ccccc2)nc2sc3c(c2c1=O)CCCC3` [JEH-3-045-1], for which, in assay [2], the inhibition at 1 µM was determined as 58.1%, the inhibition at 10 µM is 95.4% and the EC50 amounted to 0.809 µM. The EC50 in assay [3] (setting [11]) was found to be 8.49 µM.
For `C=C(C)Cn1c(SCC(=O)c2ccncc2)nc2sc3c(c2c1=O)CCCC3` [JEH-3-048-1], the EC50 in [1] (setting [10]) was found to be 14.2 µM; in [3] (setting [11]), 19 µM; in assay [4] it was 52.9 µM; in [5] (setting [12]), 87.9 µM; in [6] (setting [13]) it was 6.82 µM; in assay [7] (72 h, read-out: EC50 (50% reduction of viable cell count at 72 hours), DaoY, Human Cerebellar Medulloblastoma), 0.057 µM. Further, the values for the EC50 in [7] (setting [14]), in [8] (setting [15]) and in assay [9] were 0.0574 µM, 40.2 µM and 81.2 µM, respectively. Besides, in assay [2], the inhibition at 10 µM came out at 28.7%.
As for `C=C(C)Cn1c(SCC(=O)c2ccccn2)nc2sc3c(c2c1=O)CCCC3` [JEH-3-063], the EC50 came out at 2.29 µM in assay [1] (setting [10]); 39.8 µM in [3] (setting [11]); 7.18 µM in assay [4]; 3.82 µM in [5] (HCT-116, 72 h, read-out: EC50 (50% reduction of viable cell count at 72 hours), HCT116, Human Colorectal Carcinoma); 3.82 µM in assay [5] (setting [12]); 4.46 µM in assay [6] (setting [13]). For the same molecule, the EC50 in assay [7] (setting [14]) amounted to 15.3 µM; in assay [8] (setting [15]), 23.7 µM; in [9], 100 µM. In assay [2], the inhibition at 10 µM amounted to 35.4%.
On to `C=C(C)Cn1c(SCC(=O)c2nccs2)nc2sc3c(c2c1=O)CCCC3` [JEH-3-069-1], for which the EC50 is 16.1 µM in assay [1] (setting [10]); 32.5 µM in assay [3] (setting [11]); 38.3 µM in assay [4]; 22.9 µM in assay [5] (setting [12]); 14 µM in assay [6] (setting [13]); 26.9 µM in assay [7] (setting [14]). The EC50 was found to be 27.6 µM in [8] (setting [15]) and 69.7 µM in [9]. Moreover, the inhibition at 10 µM in assay [2] was determined as 42.8%.
